Test results taken from patent US5047512A, “Immobilized cyclophilin and methods of using such” (priority 1987, dated 1991).
Where “and” joins values, the source holds several entries; their conditions need not be identical. Equal entries are not always repeated. Where a SMILES comes first, the peptide text is derived from it. [ ]: non-standard residue; d: D form. NMe(dihydroBmt) = CCCC[C@@H](C)[C@@H](O)[C@H](NC)C(=O)O; NMeL = CN[C@@H](CC(C)C)C(=O)O; NMeV = CN[C@H](C(=O)O)C(C)C; Sar = CNCC(=O)O

Assays:
[1] = molecular target: T1, cyclophilin (Bos taurus, UniProt P62935); test: Cyclophilin affinity: enhancement of the intrinsic tryptophan fluorescence of cyclophilin by CsA or analogs; format: binding; conditions: 5 ug/ml cyclophilin, pH 7.2; for Cyclophilin affinity 0.25 ug/ml: ligand 0.25 ug/ml; for Cyclophilin affinity 1.0 ug/ml: ligand 1.0 ug/ml
T1 construct: from tissue; host or cells: purified from tissue cytosol

[2] = Retention of analog relative to CsA on a uBondapak phenyl column as a measure of hydrophobicity; format: physicochemical; conditions: isocratic 60% acetonitrile, 1 ml/min
[3] = Isoelectric point of cyclophilin; format: physicochemical
Method: The column was harvested at a flow rate of 1 ml/min. and the pH of each fraction was measured prior to titration with 1M potassium dihydrogen phosphate to pH 7.0.

[4] = Stability of CsA binding activity of cyclophilin; format: physicochemical
From the text: Similarly, it can be used to purify the ligand from a composition containing ligand. For example, the cyclophilin can be used for purifying CsA or related structures from a yeast fermentation broth in which the CsA is produced. Further, it can be used to select compounds which bind to cyclophilin as a screening test for identifying new immunosuppressant drugs. In these various procedures, it is preferred, although not required, to immobilize the cyclophilin. This can be accomplished by any procedure known in the art. A particularly useful immobilizing matrix is agarose having carboxy terminated C12 spacer arm esterfied to N-hydroxysuccinimide. This matrix is commercially available under the name Affigel-10 (Biorad). The immobilized cyclophilin is prepared by effecting a transamination with the N-hydroxysuccinimide being split off and the cyclophilin replacing it. The binding of the cyclophilin to this matrix can result in a marked stabilization of the bound activity through a three-dimensional stabilization achieved by multiple bonds through the ε-amino groups of lysine.

[5] = CsA binding activity (3H-CsA binding, Sephadex LH-20 columns); conditions: for CsA binding specific activity: purified bovine isoforms, weak cation exchange HPLC; for CsA bound per mole of cyclophilin species: stoichiometry, major and minor isoforms
Method: A typical procedure for the purification of cyclophilin will next be described. […] After addition of 10 ul ^3 H-CsA (50 ug/ml; 0.05 uCi/ml in 40% ethanol), tubes were agitated gently and 50 ul was applied to 1.8 ml Sephadex LH-20 (hydroxypropylated […]) columns pre-equilibrated with assay buffer. The samples were then washed into the columns with 500 ul of assay buffer followed by an additional 500 ul to elute cyclophilin-CsA complexes. Elution fractions were diluted in 5.6 ml Liquiscint (a fluor-containing liquid to permit β-scintillation counting of ^3 H) and the binding activity quantified as equal to (cpm - background).div.(quench correction×^3 H-CsA specific activity)×(volume of test sample).
The isoforms of bovine cyclophilin were separated by weak cation exchange high pressure liquid chromatography. […] Samples were injected onto a weak cation exchange HPLC column (Synchropak CM300:[…]; pore size 300 Å) pre-equilibrated with 5 mM potassium phosphate, 5 mM 2-ME, pH 7.2. The isoforms were eluted at 1 ml/min with a concave gradient (5 mM potassium phosphate, pH 7.2 to 175 mM NaCl, 5 mM potassium phosphate, pH 7.2) generated with a gradient programmer. Milligram quantities of the bovine cyclophilin isoforms were obtained by automating injection, gradient elution and collection. […] The disassociation constant is about 2×10^-7 M.

T1 sequence (P62935 whole entry): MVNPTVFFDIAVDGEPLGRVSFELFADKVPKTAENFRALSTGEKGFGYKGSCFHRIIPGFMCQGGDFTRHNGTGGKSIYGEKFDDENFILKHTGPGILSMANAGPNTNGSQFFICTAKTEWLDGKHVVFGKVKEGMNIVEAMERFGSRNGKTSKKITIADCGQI

Row | Molecule | Cyclophilin affinity 0.25 ug/ml [1] | Cyclophilin affinity 1.0 ug/ml [1] | Retention time of analog relative to CsA [2] | further results
1 | C/C=C/C[C@@H](C)[C@@H](O)[C@H]1C(=O)N[C@@H]([C@@H](C)O)C(=O)N(C)CC(=O)N(C)[C@@H](CC(C)C)C(=O)N[C@@H](C(C)C)C(=O)N(C)[C@@H](CC(C)C)C(=O)N[C@@H](C)C(=O)N[C@H](C)C(=O)N(C)[C@@H](CC(C)C)C(=O)N(C)[C@@H](CC(C)C)C(=O)N(C)[C@@H](C(C)C)C(=O)N1C [CsC, cyclosporin C] | 0.31 | 0.69 | 0.70 | –
2 | C/C=C/C[C@@H](C)[C@@H](O)[C@H]1C(=O)N[C@@H](CCC)C(=O)N(C)CC(=O)N(C)[C@@H](CC(C)C)C(=O)N[C@@H](C(C)C)C(=O)N(C)[C@@H](CC(C)C)C(=O)N[C@@H](C)C(=O)N[C@H](C)C(=O)N(C)[C@@H](CC(C)C)C(=O)N(C)[C@@H](CC(C)C)C(=O)N(C)[C@@H](C(C)C)C(=O)N1C [CsG] | 0.30 | 0.87 | 1.14 | –
3 | Bovine cyclophilin: Bovine thymocyte cyclophilin contains 163 amino acid residues; sequence in FIG. 1 | – | – | – | isoelectric point [3]: about 9.6
4 | Human cyclophilin: N-terminal sequence (72 residues) of bovine and human cyclophilin is completely identical | – | – | – | isoelectric point [3]: 7.4 and 9.1
5 | cyclophilin: homogeneous cytosolic binding protein which has a molecular weight of approximately 17,600 daltons | – | – | – | stability of CsA binding activity ([4]; temperature, pH, proteases, in words): unstable at 56 °C and at pH 4 or 9.5, and sensitive to proteases, i.e. trypsin; irreversible loss of CsA binding activity ([4]; unbound cyclophilin in solution with 8M urea, after dialysis): at least 60%; loss of CsA binding activity in 30% acetonitrile ([4]; unbound cyclophilin, 10 minute exposure to 30% acetonitrile): complete loss of activity; CsA binding specific activity of purified cyclophilin ([5]; purified cyclophilin): above 50 ug per mg of protein
6 | major isoform of cyclophilin: major isoform of bovine cyclophilin separated by weak cation exchange HPLC | – | – | – | CsA binding specific activity [5]: 77 ug per mg of protein; CsA bound per mole of cyclophilin species [5]: about one
7 | minor isoform of cyclophilin: minor isoform of bovine cyclophilin separated by weak cation exchange HPLC | – | – | – | CsA binding specific activity [5]: 67 ug per mg of protein; CsA bound per mole of cyclophilin species [5]: about one

The next lines start with results.

Row | Cyclophilin affinity 0.25 ug/ml [1] | Cyclophilin affinity 1.0 ug/ml [1] | Retention time of analog relative to CsA [2] | Molecule | further results
8 | 0.21 | 0.69 | 1.20 | C/C=C/C[C@@H](C)[C@@H](O)[C@H]1C(=O)N[C@@H](C(C)C)C(=O)N(C)CC(=O)N(C)[C@@H](CC(C)C)C(=O)N[C@@H](C(C)C)C(=O)N(C)[C@@H](CC(C)C)C(=O)N[C@@H](C)C(=O)N[C@H](C)C(=O)N(C)[C@@H](CC(C)C)C(=O)N(C)[C@@H](CC(C)C)C(=O)N(C)[C@@H](C(C)C)C(=O)N1C [CsD] | –
9 | 0.33 | 0.70 | 0.79 | CCCC[C@@H](C)[C@@H](O)[C@H]1C(=O)N[C@@H]([C@@H](C)O)C(=O)N(C)CC(=O)N(C)[C@@H](CC(C)C)C(=O)N[C@@H](C(C)C)C(=O)N(C)[C@@H](CC(C)C)C(=O)N[C@@H](C)C(=O)N[C@H](C)C(=O)N(C)[C@@H](CC(C)C)C(=O)N(C)[C@@H](CC(C)C)C(=O)N(C)[C@@H](C(C)C)C(=O)N1C [Dihydro-CsC] (cyclo(A[dA][NMeL][NMeL][NMeV][NMe(dihydroBmt)]T[Sar][NMeL]V[NMeL])) | –
10 | 0.19 | 0.72 | 1.28 | CCCC[C@@H](C)[C@@H](O)[C@H]1C(=O)N[C@@H](C(C)C)C(=O)N(C)CC(=O)N(C)[C@@H](CC(C)C)C(=O)N[C@@H](C(C)C)C(=O)N(C)[C@@H](CC(C)C)C(=O)N[C@@H](C)C(=O)N[C@H](C)C(=O)N(C)[C@@H](CC(C)C)C(=O)N(C)[C@@H](CC(C)C)C(=O)N(C)[C@@H](C(C)C)C(=O)N1C [Dihydro-CsD] (cyclo(A[dA][NMeL][NMeL][NMeV][NMe(dihydroBmt)]V[Sar][NMeL]V[NMeL])) | –
11 | -0.02 | -0.03 | 1.69 | C/C=C/C[C@@H](C)[C@@H](OC(C)=O)[C@H]1C(=O)N[C@@H](CC)C(=O)N(C)CC(=O)N(C)[C@@H](CC(C)C)C(=O)N[C@@H](C(C)C)C(=O)N(C)[C@@H](CC(C)C)C(=O)N[C@@H](C)C(=O)N[C@H](C)C(=O)N(C)[C@@H](CC(C)C)C(=O)N(C)[C@@H](CC(C)C)C(=O)N(C)[C@@H](C(C)C)C(=O)N1C [O-Acetyl-CsA] | –
